Consider eight molecules from patent US12371428B2 (Exelixis, Inc., priority 2019, dated 2025).

Broadly, the IC50 is the concentration at which inhibition is half-maximal.

In experiment [1] the target is Human KDR (residues 790-1356) (Homo sapiens (Human), UniProt P35968). Nature of the experiment: Human KDR kinase assay, HTRF KinEase (Example B-2). It counts as biochemical. The note with it: protocol of Example B-2 (other compounds). The gist of the method:
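Ten compound concentrations (3% DMSO final) were pre-plated, then KDR (790-1356) with biotinylated peptide in Mg/Mn/DTT buffer was added; ATP at Km (4.0 μM) started a 40 min room-temperature reaction. Detection used Eu-TK antibody and SA-XL665 in EDTA buffer; activity normalized to DMSO and reference inhibitor, IC50 by logistic fit.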
Background: Time-resolved FRET reads energy transfer from a long-lived donor to a nearby acceptor.

The target in experiment [2] is Human MER (residues 528-999) (Homo sapiens (Human), UniProt Q12866). Put plainly: Human Mer kinase assay, HTRF KinEase (Example C-2). It counts as biochemical. The note with it: protocol of Example C-2 (other compounds). The method, boiled down:
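HTRF KinEase TK assay with MER 528-999 (1 ng/well) in enzymatic buffer plus 5 mM MgCl2 and 1 mM DTT, biotinylated peptide substrate and ATP at Km (40 μM), 3% DMSO final, 60 min at room temperature. Stopped with EDTA detection mix (SA-XL665, TK antibody-Eu3+), read at 665/620 nm after 60 min; IC50 from 10-point 4-parameter fit, normalized to DMSO and 1 μM reference.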

In experiment [3] the target is KDR (phospho-KDR, VEGF165-stimulated HUVEC cells) (Homo sapiens (Human), UniProt P35968). Nature of the experiment: KDR autophosphorylation ELISA in HUVEC cells (Example G). It counts as cell-based. Conditions: cellular activity; KDR autophosphorylation ELISA in HUVEC cells. The method, boiled down:
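Read-out is phospho-KDR measured by ELISA in lysates of VEGF165-stimulated (100 ng/mL, 5 min) HUVEC that were serum-starved 24 h and then pre-exposed 1 h to compound across 8 doses in 0.3% DMSO. Unstimulated lysates defined 0% and stimulated vehicle lysates 100% activity; IC50 values come from 4-parameter logistic regression.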
For orientation: ELISA stands for enzyme-linked immunosorbent assay.

Experiment [4] has as its target Met (phospho-Met, HGF-stimulated PC-3 prostate cancer cells) (Homo sapiens (Human), UniProt P08581). Nature of the experiment: Met autophosphorylation ELISA in PC-3 cells (Example F). It counts as cell-based. The note with it: cellular activity; Met autophosphorylation ELISA in PC-3 cells; read-out: c-Met IC50. The gist of the method:
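Sandwich ELISA for phospho-Met (panTyr) in PC-3 lysates. Cells starved 3 h serum-free, compound 1 h (8-pt curve, 0.3% DMSO), HGF 100 ng/mL 10 min. 100% = HGF + DMSO; 0% = HGF + reference inhibitor. IC50 by 4-parameter fit.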

Sequence of Human MER (residues 528-999) (Q12866 528-999): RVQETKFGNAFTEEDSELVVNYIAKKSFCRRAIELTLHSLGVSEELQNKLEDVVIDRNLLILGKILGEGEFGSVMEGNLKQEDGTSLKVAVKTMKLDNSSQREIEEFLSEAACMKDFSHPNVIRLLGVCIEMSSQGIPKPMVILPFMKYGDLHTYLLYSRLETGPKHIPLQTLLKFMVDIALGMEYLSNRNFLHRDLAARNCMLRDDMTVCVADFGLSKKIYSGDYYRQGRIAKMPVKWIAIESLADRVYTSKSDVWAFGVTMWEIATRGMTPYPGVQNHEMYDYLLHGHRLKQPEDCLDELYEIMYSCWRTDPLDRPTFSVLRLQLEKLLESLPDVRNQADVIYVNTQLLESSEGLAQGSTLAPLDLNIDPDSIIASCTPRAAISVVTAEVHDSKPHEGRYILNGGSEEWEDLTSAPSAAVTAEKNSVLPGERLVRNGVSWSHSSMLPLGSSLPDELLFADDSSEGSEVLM
Sequence of Met (phospho-Met, HGF-stimulated PC-3 prostate cancer cells) (P08581 25-1390): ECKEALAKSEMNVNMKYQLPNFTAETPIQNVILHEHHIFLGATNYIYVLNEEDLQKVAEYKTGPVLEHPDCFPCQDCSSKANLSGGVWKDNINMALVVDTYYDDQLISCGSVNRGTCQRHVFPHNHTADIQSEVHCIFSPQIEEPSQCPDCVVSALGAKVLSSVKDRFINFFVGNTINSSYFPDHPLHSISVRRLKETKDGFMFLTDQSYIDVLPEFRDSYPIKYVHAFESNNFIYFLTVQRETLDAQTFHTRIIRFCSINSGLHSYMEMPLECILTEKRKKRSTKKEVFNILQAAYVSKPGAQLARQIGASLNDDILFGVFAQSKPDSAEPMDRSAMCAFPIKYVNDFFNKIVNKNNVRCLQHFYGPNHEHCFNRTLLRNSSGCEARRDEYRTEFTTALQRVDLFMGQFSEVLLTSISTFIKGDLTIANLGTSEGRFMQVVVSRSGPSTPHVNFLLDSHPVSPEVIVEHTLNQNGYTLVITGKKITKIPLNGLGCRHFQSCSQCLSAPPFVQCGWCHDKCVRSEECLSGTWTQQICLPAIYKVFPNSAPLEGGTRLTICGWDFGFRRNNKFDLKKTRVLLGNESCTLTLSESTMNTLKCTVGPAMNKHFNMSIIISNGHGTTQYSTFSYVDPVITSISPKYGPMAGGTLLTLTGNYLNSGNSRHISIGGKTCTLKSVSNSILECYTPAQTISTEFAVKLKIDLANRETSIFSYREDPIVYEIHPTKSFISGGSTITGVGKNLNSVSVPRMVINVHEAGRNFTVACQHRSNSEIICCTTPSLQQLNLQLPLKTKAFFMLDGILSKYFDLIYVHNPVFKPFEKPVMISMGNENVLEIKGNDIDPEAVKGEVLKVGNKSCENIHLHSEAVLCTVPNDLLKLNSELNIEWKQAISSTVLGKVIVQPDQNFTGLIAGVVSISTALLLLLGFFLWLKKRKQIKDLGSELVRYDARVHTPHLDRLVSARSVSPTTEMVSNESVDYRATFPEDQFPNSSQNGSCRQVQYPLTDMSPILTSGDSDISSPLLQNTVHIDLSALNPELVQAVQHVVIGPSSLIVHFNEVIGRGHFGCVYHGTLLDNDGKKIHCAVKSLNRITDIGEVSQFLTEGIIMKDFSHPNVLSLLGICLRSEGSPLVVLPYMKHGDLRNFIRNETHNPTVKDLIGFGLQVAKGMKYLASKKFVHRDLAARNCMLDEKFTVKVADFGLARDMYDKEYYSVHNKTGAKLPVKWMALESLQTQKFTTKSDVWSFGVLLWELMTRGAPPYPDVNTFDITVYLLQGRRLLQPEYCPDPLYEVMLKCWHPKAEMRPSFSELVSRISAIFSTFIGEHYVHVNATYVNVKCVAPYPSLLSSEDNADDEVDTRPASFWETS
Sequence of KDR (phospho-KDR, VEGF165-stimulated HUVEC cells) (P35968 20-1356): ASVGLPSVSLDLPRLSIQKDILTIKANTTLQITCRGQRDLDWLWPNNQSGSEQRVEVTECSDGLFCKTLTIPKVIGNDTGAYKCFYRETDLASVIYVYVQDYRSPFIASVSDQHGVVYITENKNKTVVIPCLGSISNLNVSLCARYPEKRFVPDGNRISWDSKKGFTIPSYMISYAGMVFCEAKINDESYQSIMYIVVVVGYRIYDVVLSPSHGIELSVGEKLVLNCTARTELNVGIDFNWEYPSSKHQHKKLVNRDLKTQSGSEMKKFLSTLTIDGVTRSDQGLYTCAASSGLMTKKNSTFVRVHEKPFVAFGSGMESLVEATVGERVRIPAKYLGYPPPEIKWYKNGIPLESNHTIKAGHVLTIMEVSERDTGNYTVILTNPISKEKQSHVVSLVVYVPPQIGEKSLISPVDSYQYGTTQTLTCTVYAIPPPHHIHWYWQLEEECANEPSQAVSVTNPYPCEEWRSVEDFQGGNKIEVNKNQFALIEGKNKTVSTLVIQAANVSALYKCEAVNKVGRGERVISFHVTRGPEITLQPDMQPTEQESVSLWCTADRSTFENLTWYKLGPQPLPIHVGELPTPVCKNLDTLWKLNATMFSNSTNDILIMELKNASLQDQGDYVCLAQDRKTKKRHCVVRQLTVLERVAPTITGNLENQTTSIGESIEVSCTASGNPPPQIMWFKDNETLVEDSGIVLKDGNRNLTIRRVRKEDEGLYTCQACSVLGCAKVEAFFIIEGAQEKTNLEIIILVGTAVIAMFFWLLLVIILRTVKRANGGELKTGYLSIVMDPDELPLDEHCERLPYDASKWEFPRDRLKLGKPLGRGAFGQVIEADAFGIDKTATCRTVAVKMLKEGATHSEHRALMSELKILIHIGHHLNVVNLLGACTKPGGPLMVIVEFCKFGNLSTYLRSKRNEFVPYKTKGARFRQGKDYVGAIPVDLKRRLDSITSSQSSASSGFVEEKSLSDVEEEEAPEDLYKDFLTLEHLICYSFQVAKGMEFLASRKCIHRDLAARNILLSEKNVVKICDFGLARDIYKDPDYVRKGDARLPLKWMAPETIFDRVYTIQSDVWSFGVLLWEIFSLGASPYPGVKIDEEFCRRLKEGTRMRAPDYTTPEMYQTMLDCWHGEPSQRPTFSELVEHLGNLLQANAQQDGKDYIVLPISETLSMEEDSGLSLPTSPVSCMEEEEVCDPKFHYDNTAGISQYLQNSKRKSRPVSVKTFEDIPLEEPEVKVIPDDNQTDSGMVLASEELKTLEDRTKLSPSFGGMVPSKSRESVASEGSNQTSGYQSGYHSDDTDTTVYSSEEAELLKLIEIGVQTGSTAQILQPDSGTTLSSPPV
Sequence of Human KDR (residues 790-1356) (P35968 790-1356): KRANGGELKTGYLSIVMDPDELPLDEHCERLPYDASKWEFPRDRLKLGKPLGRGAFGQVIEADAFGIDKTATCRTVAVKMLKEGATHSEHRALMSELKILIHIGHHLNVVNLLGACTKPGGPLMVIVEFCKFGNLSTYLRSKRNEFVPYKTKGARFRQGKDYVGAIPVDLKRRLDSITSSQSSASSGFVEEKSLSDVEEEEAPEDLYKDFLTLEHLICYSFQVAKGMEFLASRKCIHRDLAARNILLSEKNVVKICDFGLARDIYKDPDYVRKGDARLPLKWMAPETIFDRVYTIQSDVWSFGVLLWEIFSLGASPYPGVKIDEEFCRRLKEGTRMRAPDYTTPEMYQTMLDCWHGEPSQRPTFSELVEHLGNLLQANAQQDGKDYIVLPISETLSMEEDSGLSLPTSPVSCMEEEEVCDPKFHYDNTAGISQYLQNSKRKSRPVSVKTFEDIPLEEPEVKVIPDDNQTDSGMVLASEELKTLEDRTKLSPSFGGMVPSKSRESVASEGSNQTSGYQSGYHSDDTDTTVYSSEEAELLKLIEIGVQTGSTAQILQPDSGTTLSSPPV

For `COc1cnc2c(Oc3ccc(NC(=O)c4c(C)nc(C)n(-c5ccc(F)cc5)c4=O)cc3F)ccnc2c1` [Compound 257, N-[3-Fluoro-4-[(7-methoxy-1,5-naphthyridin-4-yl)oxy]phenyl]-1-(4-fluorophenyl)-2,4-dimethyl-6-oxopyrimidine-5-carboxamide], the half-inhibitory concentration (IC50) in experiment [1], in experiment [2], in experiment [3] and in experiment [4] was less than 100 nM in each case.

As for `COc1cnc2c(Oc3ccc(NC(=O)c4ccc(C)n(-c5ccc(F)cc5C)c4=O)cc3F)ccnc2c1` [Compound 220, N-[3-Fluoro-4-[(7-methoxy-1,5-naphthyridin-4-yl)oxy]phenyl]-1-(4-fluoro-2-methylphenyl)-6-methyl-2-oxopyridine-3-carboxamide], the 50% inhibitory concentration (IC50) in experiment [1], in experiment [2], in experiment [3] and in experiment [4] was less than 100 nM in each case.

Consider `COCCOc1nc2c(Oc3ccc(NC(=O)c4cn(C)c(C)c(-c5ccc(F)cc5)c4=O)cc3F)ccnc2cc1OC` [Compound 198, N-[3-Fluoro-4-[[7-methoxy-6-(2-methoxyethoxy)-1,5-naphthyridin-4-yl]oxy]phenyl]-5-(4-fluorophenyl)-1,6-dimethyl-4-oxopyridine-3-carboxamide], for which the IC50 in experiment [1] is 100 to 300 nM; in experiment [2], less than 100 nM; in experiment [3], less than 100 nM; in experiment [4] it was less than 100 nM.

With `COc1cnc2c(Oc3ccc(NC(=O)c4c(C)n(C)cc(-c5ccc(F)cc5)c4=O)cc3F)ccnc2c1` [Compound 239, N-[3-Fluoro-4-[(7-methoxy-1,5-naphthyridin-4-yl)oxy]phenyl]-5-(4-fluorophenyl)-1,2-dimethyl-4-oxopyridine-3-carboxamide], the IC50 is more than 300 nM in experiment [1], less than 100 nM in experiment [2], more than 300 nM in experiment [3] and 100 to 300 nM in experiment [4].

As for `COc1ccc2nccc(Oc3ccc(NC(=O)c4cnc(CO)c(-c5ccc(F)cc5)c4O)cc3F)c2n1` [Compound 231, N-[3-Fluoro-4-[(6-methoxy-1,5-naphthyridin-4-yl)oxy]phenyl]-5-(4-fluorophenyl)-4-hydroxy-6-(hydroxymethyl)pyridine-3-carboxamide], the half-inhibitory concentration (IC50) in experiment [1] is 100 to 300 nM; in experiment [2] it was less than 100 nM; in experiment [3] it was less than 100 nM; in experiment [4] it was less than 100 nM.

On to `COc1ccc2nccc(Oc3ccc(NC(=O)c4cn(C)c(C)c(-c5ccc(F)cc5C)c4=O)cc3F)c2n1` [Compound 183, N-[3-Fluoro-4-[(6-methoxy-1,5-naphthyridin-4-yl)oxy]phenyl]-5-(4-fluoro-2-methylphenyl)-1,6-dimethyl-4-oxopyridine-3-carboxamide], for which the IC50 was more than 300 nM in experiment [1], less than 100 nM in experiment [2], more than 300 nM in experiment [3] and 100 to 300 nM in experiment [4].

Turning to `COc1cnc2c(Oc3ccc(NC(=O)c4cn(C)c(C)c(-c5ccc(F)cc5C)c4=O)cc3F)ccnc2c1` [Compound 181, N-[3-Fluoro-4-[(7-methoxy-1,5-naphthyridin-4-yl)oxy]phenyl]-5-(4-fluoro-2-methylphenyl)-1,6-dimethyl-4-oxopyridine-3-carboxamide], the IC50 in experiment [1] is more than 300 nM; in experiment [2], less than 100 nM; in experiment [3] it was more than 300 nM; in experiment [4] it was less than 100 nM.

For `COc1cnc2c(Oc3ccc(NC(=O)c4ccc(C)n(-c5ccc(F)cc5C)c4=O)cc3)ccnc2c1` [Compound 226, 1-(4-Fluoro-2-methylphenyl)-N-[4-[(7-methoxy-1,5-naphthyridin-4-yl)oxy]phenyl]-6-methyl-2-oxopyridine-3-carboxamide], the IC50 in experiment [1] was 100 to 300 nM; in experiment [2] it was less than 100 nM; in experiment [3], less than 100 nM; in experiment [4], less than 100 nM.
